Converted amounts (≈) assume the structure as drawn.
Assays:
[1] = RealSOL kinetic solubility; assay type: physicochemical; conditions: PBS pH 7.4, 24 h, 25 °C; for solubility kinetic at 24 h: phosphate buffered saline, aqueous buffer, kinetic from dmso stock
Experimental: Solubility was assessed using an 'in-house' developed method known as 'RealSOL'. This solubility method measures the solubility in physiological strength phosphate buffered saline starting from 10 mM DMSO solutions of the test compounds. Although a 'kinetic'^[1] solubility method, the long shaking times appears to give solubility values that reflect more closely those made from solid samples when compared to a previous nephelometric method (unpublished in-house data).
Test compounds were dissolved in DMSO to give 10 mM solutions. Solubility test samples were prepared by adding a volume (5 µL) of the 10 mM solution to a volume (195 µL) of phosphate buffered saline, pH 7.4 (Sigma-Aldrich, Cat no. P4417, made as per manufacturer’s instructions). This solution was then mixed for 24 h (rotary mixing, 900 rpm, 25 °C) excluding light.
After mixing, the solubility test samples were filtered to remove any undissolved material using a proprietary filter (Millipore Multiscreen HTS filter, 96-well format). Samples were drawn through the filter using a vacuum.
The filtrate from the above was analysed for dissolved drug compound using a truncated UHPLC methodology. A Shimadzu Nexera X2 UHPLC system was used, with a reversed-phase column and a simple formic acid gradient elution. The UHPLC parameters are shown in Supporting Information Table 5.
A calibration solution was prepared in the following way: the same 10 mM solution used to prepare the solubility test sample was diluted in DMSO to give a 500 µM solution. This solution was then again diluted with 50:50 acetonitrile: water to give a 50 µM solution. Aliquots (0.2, 2.0 and 5.0 µL) of this 50 µM solution were then injected onto the UHPLC system and the areas of the resultant peaks integrated to produce a calibration line. Aliquots of the test sample filtrate (0.4 and 5.0 µL) were then injected onto the UHPLC system and the resultant peak areas for any peaks corresponding to the test compound determined and quantified using the calibration line (the injection volume that gave a peak area closest to the calibrated range was used for determining solubility).

[2] = Plasma protein binding, equilibrium dialysis, rat; assay type: in vitro ADME; conditions: male, Han Wistar, 5 h dialysis, read-out: Plasma Protein Binding (Fu) Rat
Experimental: A 96-well equilibrium dialysis apparatus was used to determine the free fraction in plasma for each compound (HT Dialysis LLC, Gales Ferry, CT). Membranes (12–14 kDA cut-off) were conditioned in deionised water for 60 min, followed by conditioning in 80:20 deionised water: ethanol for 20 min, and then rinsed in isotonic buffer before use. Female CD1 mouse, Male rat Han Wistar and human plasma was removed from the freezer and allowed to thaw on the day of experiment. Thawed plasma was then centrifuged (Allegra X12-R, Beckman Coulter, USA), spiked with test compound (final concentration 10 μg/mL), and 150 μL aliquots (n = 6 replicate determinations) loaded into the 96-well equilibrium dialysis plate. Dialysis vs isotonic buffer (150 μL) was carried out for 5 h in a temperature-controlled incubator at ca. 37 °C (Barworld Scientific Ltd, UK) using an orbital microplate shaker at 100 revolutions/minute (Barworld Scientific Ltd, UK). At the end of the incubation period, 50 μL aliquots of plasma or buffer were transferred to a 96-well 2.1 mL Waters ^TM plate and the composition in each well balanced with control fluid (50 μL), such that the volume of buffer to plasma is the same. […] All samples were analysed by UPLC-MS/MS. The unbound fraction was determined as the ratio of the peak area in buffer to that in plasma.

SMILES	solubility kinetic at 24 h [1]	fraction unbound at 5 h, 10 μg/mL [2]	RealSol [1]
O=C1CCC(NC(=O)c2ccc(CN3CCN(Cc4ccc(-c5cn(-c6ccc(-c7cn8nccc(C(=O)Nc9cnccc9N9CCOCC9)c8n7)cc6)nn5)nc4)CC3)cn2)C(=O)N1 (stereo not shown) [compound 22]	< 1 µM		
Cn1nc(N2CCC(=O)NC2=O)c2ccc(CN3CCN(Cc4ccc(-c5cn(-c6ccc(-c7cn8nccc(C(=O)Nc9cnccc9N9CCOCC9)c8n7)cc6)nn5)nc4)CC3)cc21 [compound 24]	2.7 µM (≈ 2.43 µg/mL)	0.00064	low micromolar range
Cn1nc(N2CCC(=O)NC2=O)c2ccc(CN3CCN(CCCc4cn(-c5ccc(-c6cn7nccc(C(=O)Nc8cnccc8N8CCOCC8)c7n6)cc5)nn4)CC3)cc21 [compound 26]	2.3 µM (≈ 1.95 µg/mL)	0.01	low micromolar range

Source: publication PMC12501029, “Discovery of a CNS active GSK3 degrader using orthogonally reactive linker screening” (Nature Communications, 2025)
